From US20160123988A1, “METHOD OF TRACELESS LABELING GLYCOPROTEINS ON SURFACE AND APPLICATION THEREOF” (NATIONAL SUN YAT-SEN UNIVERSITY, priority 2014, published 2016)

Experiments:
fetuins = biological target: T1, fetuins (Bos taurus, UniProt P12763); experiment: Labeling of fetuins by probes, biotinylation, SDS-PAGE and Western blotting with anti-biotin antibody; format: biochemical, calf; settings: probe 40 μM, fetuins 20 μM, 37° C., 48 h; FIG. 3
T1 construct: Fetuin (from fetal calf serum) and RNase B (from bovine pancreas) were purchased from Sigma-Aldrich; purchased Sigma-Aldrich; host or cells: fetal calf serum (natural source)
T1 sequence (P12763 19-359): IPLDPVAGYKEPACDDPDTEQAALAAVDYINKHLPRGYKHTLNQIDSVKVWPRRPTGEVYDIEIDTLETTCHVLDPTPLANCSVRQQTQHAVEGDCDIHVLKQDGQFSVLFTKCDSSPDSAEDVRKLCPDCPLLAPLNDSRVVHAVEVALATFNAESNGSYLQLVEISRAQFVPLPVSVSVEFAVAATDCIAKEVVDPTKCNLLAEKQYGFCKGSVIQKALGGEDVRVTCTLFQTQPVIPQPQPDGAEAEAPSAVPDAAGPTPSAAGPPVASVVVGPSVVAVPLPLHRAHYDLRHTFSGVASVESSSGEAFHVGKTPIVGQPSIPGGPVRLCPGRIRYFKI
Method: A solution of fetuins (10 μM) was incubated with BA-tosyl probes 1-3 (50 μM) in PBS buffer (0.1 M, pH 8.0) at 37° C. for 48 h. Then, the unreacted BA-tosyl probes were removed by centrifugal filtration (Amicon Ultra-0.5 mL 10K) at 15,000 rpm, followed by washing five times with PBS buffer (300 μL). The resultant alkyne-tagged fetuins (11.53 μL, 26.28 μg/μL) were collected and treated with azido biotin (20 μL, 1 mM) in PBS buffer (44.47 μL, pH 8.0, 0.1 M). Then, the mixture was treated with tris(carboxyethyl)phosphine (TCEP, 0.1 M, 2 μL) and tris[(1-benzyl-1H-1,2,3-triazol-4-yl)methyl]amine (TBTA, 0.01 M, 20 μL) with gentle shaking. After homogeneous mixing, CuSO4 (0.1 M, 2 μL) was added, and the reaction mixture was shaken at RT for 12 h. The excess reactants were removed by centrifugal filtration at 15,000 rpm, and the biotinylated fetuins were obtained.
To evaluate the specificity of synthetic BA-tosyl probes, BA-tosyl 1-3, aniline-tosyl 7, and BA-alkyne 8 (40 μM) were incubated with fetuins (20 μM), blood glycoproteins carrying triantennary glycan chains with terminal N-acetylneuraminic acids, at 37° C. for 48 h. The unreacted chemical probes were then removed by centrifugal filtration or size-exclusion column chromatography to obtain the alkyne-labeled fetuins. Azido biotin was then used to form biotinylated fetuins via Cu(I)-catalyzed 1,2,3-triazole cycloaddition. […]

RNase B = biological target: T2, RNase B (Bos taurus, UniProt P61823); experiment: Immobilization of RNase B on functionalized slides, read out with Con A-FITC fluorescence; format: biochemical, bovine; settings: for Con A-FITC signal of RNase B on probe-functionalized slides: slides incubated with RNase B then treated with glycerol, compared to BA-tosyl-treated slides, FIG. 6(b), 6(c); for Con A-FITC intensity after release of BA-tosylate by polyol: RNase B on BA-tosyl slides, glycerol 10%, sorbitol 100 mM, compared to galactose 100 mM, FIG. 6(a)
T2 construct: Fetuin (from fetal calf serum) and RNase B (from bovine pancreas) were purchased from Sigma-Aldrich; purchased Sigma-Aldrich; host or cells: bovine pancreas (natural source)
T2 sequence (P61823 27-150): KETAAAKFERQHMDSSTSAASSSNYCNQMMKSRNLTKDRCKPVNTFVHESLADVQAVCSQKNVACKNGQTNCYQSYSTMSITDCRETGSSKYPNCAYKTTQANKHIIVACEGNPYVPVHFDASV
Method: The aforementioned azide-functionalized slide was rinsed twice with sodium phosphate buffer (25 mM, pH 8.0) and immersed in the same buffer (45 mL). To effect the Cu(I)-catalyzed 1,2,3-triazole cycloaddition, BA-tosyl 1 (or compound 7 or 8) was added to the reaction mixture to afford a final concentration of 5 mM and treated with TCEP (2 mM) and TBTA (2 mM). Then, an aqueous solution of CuSO 4 (100 mM) was added to the reaction mixture to give a final concentration of 4 mM, and the mixture was allowed to react at RT. After 12 h, the slide was washed three times with PBS and twice with distilled deionized water (ddH2O) to obtain BA-tosyl 1 (or compound 7 or 8)-functionalized slides.
Fluorescein-labeled lectins (Con A-FITC and WGA-FITC, 10 μM in PBS containing 5 mM CaCl2 and 5 mM MnCl2) were incubated with the glycoprotein microarray at RT for 1 h. Then, the slide was washed three times with PBS containing 10% glycerol and twice with ddH2O. Finally, the slide was dried under warm air and subjected to fluorescence analysis.
To quantitatively evaluate the protein-glycoprotein interactions, the lectin-glycoprotein complexes were analyzed by measuring the fluorescence intensities of the fluorescein tags. The fluorescence signals were directly detected by a NovaRay Microarray Scanner with an FITC filter, and were subsequently analyzed using ArrayVision software.
Glycoproteins in ddH2O containing 20% dimethyl sulfoxide (DMSO) were spotted onto the surface of the functionalized slide. To immobilize glycoproteins on the slides, an AD1500 arrayer (Biodot) was used to print samples of interest onto the functionalized slide with a spot volume of 20 nL under 85% relative humidity at 25° C. The protein sample was allowed to incubate at 25° C. for 12 h, and the glycoprotein solution was then removed by decanting the reaction mixture. The slide was incubated with ddH2O containing 10% glycerol for 30 min, followed by washing twice with the same solution (ddH2O with 10% glycerol). The slide was further treated with 10 mM imidazole solution (Tris buffer, 10 mM NaCl, pH 7.4) for 30 min to block unreacted BA-tosyl groups. The obtained glycoprotein micro-array was then washed three times by PBS (pH 7.4) and was ready for advanced use.
To evaluate the details of the immobilization mechanism, ribonuclease B (RNase B), carrying a single N-glycan chain composed of high mannose isomers, was spotted onto BA-tosyl-functionalized slides and allowed to incubate at 25° C. for 12 h. The slides were then individually treated with three different polyols in phosphate buffered saline (PBS) to competitively release the BA-tosylate. Glycerol (10%), galactose (100 mM), and sorbitol (100 mM) were used. […]

Structure (SMILES) | Western blot band of biotin-labeled fetuins (labeling of fetuin) (fetuins) | Con A-FITC signal of RNase B on probe-functionalized slides (RNase B) | Con A-FITC signal of RNase B on probe-functionalized slides (RNase B; listed as 7) | Con A-FITC intensity after release of BA-tosylate by polyol (RNase B)
C#CCCCOS(=O)(=O)c1cc(C=O)cc(C(=O)Nc2ccccc2)c1 [aniline-tosyl 7] | much weaker signal | very low signal intensity | nearly background-level signals | –
OCC(O)CO [glycerol] | – | – | – | twice the intensity
OC[C@@H](O)[C@@H](O)[C@H](O)[C@@H](O)CO [sorbitol] | – | – | – | twice the intensity
